In patent publication US20120226186A1 (priority 2009, published 2012):

What was measured:
[1] = tested on: nociceptive flexor reflexes; conditions: Willer, 1985; cited from earlier work
[2] = all 20 subjects, i.v. computer-controlled infusion

| Structure (SMILES) | reflex threshold of nociceptive flexor reflexes after application of the analgetic [1] | median effect compartment concentration at loss of reaction to repeated verbal commands ([2]; median) [µg/mL] | range of effect compartment concentration at loss of reaction to repeated verbal commands ([2]; range) [µg/mL] |
| --- | --- | --- | --- |
| CN1CC[C@]23c4c5ccc(O)c4O[C@H]2[C@@H](O)C=C[C@H]3[C@H]1C5 [morphine] | changed in a concentration dependent manner | – | – |
| CC(C)c1cccc(C(C)C)c1O [propofol, 2,6-diisopropylphenol] | – | 4 | 2 to 5 |
